This is an account of results in patent US20100273769A1, “COMPOSITION AND METHOD FOR THE TREATMENT OF PARKINSON'S DISEASE” (priority 2009, published 2010).

The conditions of series [1]: rodents, in vivo.
Series [2] relates to R1441C LRRK2 transgenic C. elegans. Nature of the series: Food-sensing (slowing) response in LRRK2 transgenic C. elegans. Type of series: in vivo. The note with it: Caenorhabditis elegans, 96 h; exposure through larval stages to adult stage day 4; read-out: Half-maximal restoration of the slowing response after food exposure. As to the method:
Dopaminergic neurons in C. elegans are involved in food sensing behavior such that in the absence of food worms move more rapidly, as assessed by determining their bending frequency on an agar plate not supplied with food. In an established assay the animals are then exposed to food, and the difference in motility is recorded in the form of bending frequency [Sawin et al., Neuron 26, 619-631 (2000)]. […] In approximate synchrony with the dopaminergic neurodegeneration this slowing response is essentially eliminated after 4 days. […] The slowing response can be reconstituted to a substantial degree by supplementation with dopamine, confirming that the phenotype is due to loss of dopaminergic input (FIG. 5).
The clear-cut functional phenotype of this model can be used to determine the efficacy of LRRK2 kinase inhibitors and the accurate determination of their potency in a biological context. […] The potency is expressed as the half-maximal restoration of the slowing response. […]
The functional consequence of dopaminergic neurodegeneration was assayed using the food-sensing response resulting in a slowing of motility after food exposure as assessed by the frequency of body bending within 20 second intervals in groups of 10 animals [Sawin et al., Neuron 26, 619-631 (2000)]. […]

Another series addresses Cdk1 (Homo sapiens, UniProt P06493). Nature of the series: Kinase specificity, Cdk1. The note with it: 100 μM ATP. Format: biochemical.
The target in a further series is ERK2 (Homo sapiens, UniProt P28482). Description: Kinase specificity, ERK2. Type of series: biochemical. The note with it: 100 μM ATP.
Sequence of ERK2 (P28482 whole entry, species assumed): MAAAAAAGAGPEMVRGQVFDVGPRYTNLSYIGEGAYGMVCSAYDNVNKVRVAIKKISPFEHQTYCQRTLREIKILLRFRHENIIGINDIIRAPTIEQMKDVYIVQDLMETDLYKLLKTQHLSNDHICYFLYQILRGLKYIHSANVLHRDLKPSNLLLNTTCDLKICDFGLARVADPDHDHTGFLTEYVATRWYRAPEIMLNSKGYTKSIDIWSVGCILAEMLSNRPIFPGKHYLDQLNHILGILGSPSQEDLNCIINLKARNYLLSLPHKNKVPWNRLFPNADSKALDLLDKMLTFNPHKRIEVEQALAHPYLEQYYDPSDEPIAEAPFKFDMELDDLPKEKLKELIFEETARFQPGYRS
The target in another series is T1, wildtype human LRRK2 (Homo sapiens, UniProt Q5S007).
T1 construct: human LRRK2 protein fragment encompassing amino acids 1326 to 2527; GST; made in house
T1 sequence (Q5S007 1326-2527): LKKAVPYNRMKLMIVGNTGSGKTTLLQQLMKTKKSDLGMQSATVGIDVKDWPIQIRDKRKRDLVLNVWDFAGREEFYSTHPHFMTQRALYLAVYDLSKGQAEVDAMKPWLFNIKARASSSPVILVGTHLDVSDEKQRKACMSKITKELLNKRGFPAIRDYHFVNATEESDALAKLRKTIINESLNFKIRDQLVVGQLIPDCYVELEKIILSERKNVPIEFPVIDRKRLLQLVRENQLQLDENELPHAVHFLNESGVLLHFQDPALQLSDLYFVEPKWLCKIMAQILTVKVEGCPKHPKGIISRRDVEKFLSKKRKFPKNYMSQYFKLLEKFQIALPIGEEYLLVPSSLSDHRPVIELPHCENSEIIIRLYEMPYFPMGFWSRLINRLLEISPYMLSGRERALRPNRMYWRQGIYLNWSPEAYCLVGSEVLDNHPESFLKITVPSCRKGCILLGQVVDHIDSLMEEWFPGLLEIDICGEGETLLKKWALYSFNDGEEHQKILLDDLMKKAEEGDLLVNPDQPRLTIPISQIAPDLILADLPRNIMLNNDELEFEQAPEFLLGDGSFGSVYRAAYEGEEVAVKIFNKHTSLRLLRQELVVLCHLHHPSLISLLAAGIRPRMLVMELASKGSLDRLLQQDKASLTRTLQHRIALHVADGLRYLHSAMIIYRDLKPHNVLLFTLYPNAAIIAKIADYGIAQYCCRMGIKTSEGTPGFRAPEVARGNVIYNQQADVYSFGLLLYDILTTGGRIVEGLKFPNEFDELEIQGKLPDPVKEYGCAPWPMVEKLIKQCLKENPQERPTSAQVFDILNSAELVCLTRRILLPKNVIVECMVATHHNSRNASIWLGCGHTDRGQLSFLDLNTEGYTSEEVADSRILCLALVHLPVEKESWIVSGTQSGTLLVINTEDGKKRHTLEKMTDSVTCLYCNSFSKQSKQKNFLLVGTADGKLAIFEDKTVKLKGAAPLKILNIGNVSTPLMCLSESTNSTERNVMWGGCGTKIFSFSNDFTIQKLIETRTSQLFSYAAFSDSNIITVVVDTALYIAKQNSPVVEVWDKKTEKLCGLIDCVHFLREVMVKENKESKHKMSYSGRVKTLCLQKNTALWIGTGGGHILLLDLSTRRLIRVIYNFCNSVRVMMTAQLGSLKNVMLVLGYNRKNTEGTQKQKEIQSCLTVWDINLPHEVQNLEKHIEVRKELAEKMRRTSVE
Description: Adapta assay, inhibition of wildtype human LRRK2 kinase fragment with LRRKtide. Format: biochemical.

Structures are written as SMILES. Read-outs that look alike come from different tables or passages of the source.

Sequence of Cdk1 (P06493 whole entry, species assumed): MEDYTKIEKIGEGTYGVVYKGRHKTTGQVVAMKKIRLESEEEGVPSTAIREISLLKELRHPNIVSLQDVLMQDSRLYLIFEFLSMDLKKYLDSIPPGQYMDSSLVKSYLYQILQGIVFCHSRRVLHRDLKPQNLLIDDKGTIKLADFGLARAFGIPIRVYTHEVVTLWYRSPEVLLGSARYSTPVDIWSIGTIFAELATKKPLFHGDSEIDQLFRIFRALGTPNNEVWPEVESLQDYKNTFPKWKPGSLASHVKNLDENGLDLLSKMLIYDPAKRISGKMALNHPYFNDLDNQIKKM
Sequence of Cdk1 (P14635 whole entry partner, species assumed): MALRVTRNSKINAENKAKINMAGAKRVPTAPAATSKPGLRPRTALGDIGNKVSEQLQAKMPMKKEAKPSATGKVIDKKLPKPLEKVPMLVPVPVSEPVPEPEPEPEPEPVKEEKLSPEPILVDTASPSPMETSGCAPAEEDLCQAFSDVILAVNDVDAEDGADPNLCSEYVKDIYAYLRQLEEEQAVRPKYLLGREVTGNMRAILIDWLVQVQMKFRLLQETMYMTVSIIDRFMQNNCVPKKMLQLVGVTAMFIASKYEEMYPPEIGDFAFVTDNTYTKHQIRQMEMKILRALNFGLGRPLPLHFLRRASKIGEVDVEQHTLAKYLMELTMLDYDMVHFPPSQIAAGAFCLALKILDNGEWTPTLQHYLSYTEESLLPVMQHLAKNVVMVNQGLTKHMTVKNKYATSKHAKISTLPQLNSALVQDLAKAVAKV

For `CNC(=O)[C@@]1(N)CC2OC1(C)n1c3ccccc3c3c4c(c5c6ccccc6n2c5c31)C(=O)NC4` (stereo partly shown) [Compound 3], in series [1], the “Plasma concentration sustained without detectable toxicity” value is 600 to 800 nM. For the same compound, the EC50 in series [2] was determined as 0.03 µM. In addition, the IC50 at Cdk1 is 0.017 µM; on ERK2, 0.026 µM; at wildtype human LRRK2 (100 μM ATP, read-out: LRRK2), 0.0011 µM; on wildtype human LRRK2 (100 microM ATP, read-out: LRRK2 inhibitory potency (essentially receptor-limited)), not above 0.001 µM. For the same compound, on wildtype human LRRK2 (100 μM ATP, FIG. 3A), the “IC50 relative to nominal kinase concentration, wild-type LRRK2” value is listed as “substantially below the nominal concentration of the kinase itself”.
